Measurements taken from patent publication US6335008B1, “Hybrid genes incorporating a DNA fragment containing at least one gene encoding an insecticidal protein and a gene encoding a glutamine synthase inhibitor, plasmids, transformed cyanobacteria expressing such proteins and method for use as biocontrol agent” (priority 1987, dated 2002).

Assays:
[1] = tested on: Synechocystis 6803 transformed with pWP3210; assay: Growth on BG-11 agar plate containing PPT or Bialaphos, bar gene transformant; format: cell-based; settings: Bialaphos at 5 micrograms/ml
Protocol: (§1) Dilution of transformed Synechocystis 6803 was plated on BG-11 agar plate containing PPT (Table 4).

[2] = tested on: Synechocystis 6803 transformed with pKW 1188; assay: Growth on BG-11 agar plate containing PPT or Bialaphos, vector transformant; format: cell-based; settings: Bialaphos at 5 micrograms/ml
Protocol: as §1

Compound: C[C@H](NC(=O)[C@H](C)NC(=O)[C@@H](N)CCP(C)(=O)O)C(=O)O [Bialaphos]
- growth on Bialaphos [1]: neither of these two transformants grow
- growth on Bialaphos [2]: neither of these two transformants grow
